# Source: PMC11864979, “First-in-class ultralong-target-residence-time p38α inhibitors as a mitosis-targeted therapy for colorectal cancer” (Nature Cancer, 2025)
# Where two headings read alike, the source gives them in different places.
# Key:
# Test in all cases: selectivity profiling in a panel of 340 wild-type kinases (Reaction Biology Europe)
# Type in all cases: binding
# 340 wild-type kinases [1] = target: T1, 340 wild-type kinases (Homo sapiens, UniProt P45983)
# T1 construct: purchased Reaction Biology Europe
# 340 wild-type kinases [2] = target: T2, 340 wild-type kinases (Homo sapiens, UniProt P07948)
# T2 construct: purchased Reaction Biology Europe
# 340 wild-type kinases [3] = target: T3, 340 wild-type kinases (Homo sapiens, UniProt Q9UM73)
# T3 construct: purchased Reaction Biology Europe
# 340 wild-type kinases [4] = target: T4, 340 wild-type kinases (Homo sapiens, UniProt Q07912)
# T4 construct: purchased Reaction Biology Europe
# 340 wild-type kinases [5] = target: T5, 340 wild-type kinases (Homo sapiens, UniProt Q15208)
# T5 construct: purchased Reaction Biology Europe
# 340 wild-type kinases [6] = target: T6, 340 wild-type kinases (Homo sapiens, UniProt Q04759)
# T6 construct: purchased Reaction Biology Europe
# 340 wild-type kinases [7] = target: T7, 340 wild-type kinases (Homo sapiens, UniProt Q9UHD2)
# T7 construct: purchased Reaction Biology Europe
# T7 sequence (Q9UHD2 1-729): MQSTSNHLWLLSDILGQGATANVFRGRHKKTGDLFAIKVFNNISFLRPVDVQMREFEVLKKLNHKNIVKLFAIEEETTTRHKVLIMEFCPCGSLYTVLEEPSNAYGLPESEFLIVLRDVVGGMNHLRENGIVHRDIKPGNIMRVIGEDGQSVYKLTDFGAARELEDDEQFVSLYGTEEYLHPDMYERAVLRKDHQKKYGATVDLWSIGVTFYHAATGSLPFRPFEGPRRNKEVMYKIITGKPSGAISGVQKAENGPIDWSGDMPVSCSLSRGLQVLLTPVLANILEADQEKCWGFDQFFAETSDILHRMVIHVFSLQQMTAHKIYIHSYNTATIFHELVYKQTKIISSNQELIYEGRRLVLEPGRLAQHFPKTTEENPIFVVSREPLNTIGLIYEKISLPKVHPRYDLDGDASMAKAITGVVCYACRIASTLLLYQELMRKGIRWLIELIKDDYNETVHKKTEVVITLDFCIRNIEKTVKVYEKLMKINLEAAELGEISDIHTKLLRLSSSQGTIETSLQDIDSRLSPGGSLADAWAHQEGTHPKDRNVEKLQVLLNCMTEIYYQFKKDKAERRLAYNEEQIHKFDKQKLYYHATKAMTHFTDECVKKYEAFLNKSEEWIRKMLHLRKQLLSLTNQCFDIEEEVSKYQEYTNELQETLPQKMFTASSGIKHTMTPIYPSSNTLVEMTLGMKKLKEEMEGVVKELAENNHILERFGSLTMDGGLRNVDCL
# 340 wild-type kinases [8] = target: T8, 340 wild-type kinases (Homo sapiens, UniProt P19525)
# T8 construct: purchased Reaction Biology Europe
# 340 wild-type kinases [9] = target: T9, 340 wild-type kinases (Homo sapiens, UniProt P54756)
# T9 construct: purchased Reaction Biology Europe
# 340 wild-type kinases [10] = target: T10, 340 wild-type kinases (Homo sapiens, UniProt P22455)
# T10 construct: purchased Reaction Biology Europe
# 340 wild-type kinases [11] = target: T11, 340 wild-type kinases (Homo sapiens, UniProt Q86Z02)
# T11 construct: purchased Reaction Biology Europe
# 340 wild-type kinases [12] = target: T12, 340 wild-type kinases (Homo sapiens, UniProt P35916)
# T12 construct: purchased Reaction Biology Europe
# 340 wild-type kinases [13] = target: T13, 340 wild-type kinases (Homo sapiens, UniProt Q9UQM7)
# T13 construct: purchased Reaction Biology Europe
# T12 sequence (P35916 25-1363): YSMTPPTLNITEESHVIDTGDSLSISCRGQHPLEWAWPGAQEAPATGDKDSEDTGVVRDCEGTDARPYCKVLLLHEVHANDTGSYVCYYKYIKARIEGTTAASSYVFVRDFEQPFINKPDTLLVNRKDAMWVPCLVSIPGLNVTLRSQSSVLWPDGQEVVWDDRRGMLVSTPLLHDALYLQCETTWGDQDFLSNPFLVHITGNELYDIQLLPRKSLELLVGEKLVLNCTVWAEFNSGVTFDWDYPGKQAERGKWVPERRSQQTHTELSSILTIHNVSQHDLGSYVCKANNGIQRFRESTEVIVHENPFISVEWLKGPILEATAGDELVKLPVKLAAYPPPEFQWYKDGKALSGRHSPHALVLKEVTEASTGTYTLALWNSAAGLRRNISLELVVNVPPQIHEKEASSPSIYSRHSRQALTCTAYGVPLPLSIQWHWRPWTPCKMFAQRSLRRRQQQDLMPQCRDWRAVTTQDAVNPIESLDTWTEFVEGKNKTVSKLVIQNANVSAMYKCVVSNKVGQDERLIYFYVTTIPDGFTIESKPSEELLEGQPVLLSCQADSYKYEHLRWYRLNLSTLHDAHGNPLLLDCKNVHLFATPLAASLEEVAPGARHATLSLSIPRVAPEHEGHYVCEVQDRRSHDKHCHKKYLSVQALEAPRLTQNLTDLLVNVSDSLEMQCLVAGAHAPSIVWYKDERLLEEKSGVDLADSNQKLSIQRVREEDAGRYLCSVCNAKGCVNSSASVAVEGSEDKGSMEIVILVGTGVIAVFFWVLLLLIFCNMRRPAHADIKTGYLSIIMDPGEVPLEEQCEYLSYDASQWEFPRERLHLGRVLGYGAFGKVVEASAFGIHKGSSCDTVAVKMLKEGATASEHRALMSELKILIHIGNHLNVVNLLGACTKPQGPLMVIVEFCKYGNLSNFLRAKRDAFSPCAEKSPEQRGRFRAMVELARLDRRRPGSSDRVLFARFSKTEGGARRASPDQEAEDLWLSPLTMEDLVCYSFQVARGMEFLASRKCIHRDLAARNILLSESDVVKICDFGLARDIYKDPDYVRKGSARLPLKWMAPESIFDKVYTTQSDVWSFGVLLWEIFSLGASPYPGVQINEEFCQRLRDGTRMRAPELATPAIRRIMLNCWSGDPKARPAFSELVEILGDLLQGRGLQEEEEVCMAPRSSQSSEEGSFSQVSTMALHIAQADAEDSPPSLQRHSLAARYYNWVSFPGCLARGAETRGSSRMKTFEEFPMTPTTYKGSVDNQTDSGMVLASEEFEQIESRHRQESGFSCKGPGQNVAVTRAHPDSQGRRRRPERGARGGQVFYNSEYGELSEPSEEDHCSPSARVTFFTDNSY
# T10 sequence (P22455 22-802): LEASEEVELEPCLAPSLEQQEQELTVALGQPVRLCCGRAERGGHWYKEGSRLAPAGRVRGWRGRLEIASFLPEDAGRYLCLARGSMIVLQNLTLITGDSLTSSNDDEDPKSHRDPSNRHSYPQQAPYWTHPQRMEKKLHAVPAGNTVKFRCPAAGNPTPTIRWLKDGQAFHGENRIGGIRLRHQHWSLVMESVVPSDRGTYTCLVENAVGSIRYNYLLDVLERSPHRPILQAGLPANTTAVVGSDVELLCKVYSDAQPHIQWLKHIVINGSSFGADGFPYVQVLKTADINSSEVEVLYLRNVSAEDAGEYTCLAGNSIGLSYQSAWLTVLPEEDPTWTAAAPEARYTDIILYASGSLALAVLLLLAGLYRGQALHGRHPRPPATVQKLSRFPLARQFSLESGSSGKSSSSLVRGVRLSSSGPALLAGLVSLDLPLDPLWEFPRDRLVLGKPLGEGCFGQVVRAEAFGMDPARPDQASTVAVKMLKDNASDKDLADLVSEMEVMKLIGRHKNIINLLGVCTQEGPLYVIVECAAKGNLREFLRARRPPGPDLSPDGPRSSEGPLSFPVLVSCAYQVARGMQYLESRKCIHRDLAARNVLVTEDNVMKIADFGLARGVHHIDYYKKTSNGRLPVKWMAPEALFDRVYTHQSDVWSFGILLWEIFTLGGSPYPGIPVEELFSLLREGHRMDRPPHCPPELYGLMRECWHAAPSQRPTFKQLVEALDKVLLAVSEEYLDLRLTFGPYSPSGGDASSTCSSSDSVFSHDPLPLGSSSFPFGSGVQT
# T8 sequence (P19525 whole entry): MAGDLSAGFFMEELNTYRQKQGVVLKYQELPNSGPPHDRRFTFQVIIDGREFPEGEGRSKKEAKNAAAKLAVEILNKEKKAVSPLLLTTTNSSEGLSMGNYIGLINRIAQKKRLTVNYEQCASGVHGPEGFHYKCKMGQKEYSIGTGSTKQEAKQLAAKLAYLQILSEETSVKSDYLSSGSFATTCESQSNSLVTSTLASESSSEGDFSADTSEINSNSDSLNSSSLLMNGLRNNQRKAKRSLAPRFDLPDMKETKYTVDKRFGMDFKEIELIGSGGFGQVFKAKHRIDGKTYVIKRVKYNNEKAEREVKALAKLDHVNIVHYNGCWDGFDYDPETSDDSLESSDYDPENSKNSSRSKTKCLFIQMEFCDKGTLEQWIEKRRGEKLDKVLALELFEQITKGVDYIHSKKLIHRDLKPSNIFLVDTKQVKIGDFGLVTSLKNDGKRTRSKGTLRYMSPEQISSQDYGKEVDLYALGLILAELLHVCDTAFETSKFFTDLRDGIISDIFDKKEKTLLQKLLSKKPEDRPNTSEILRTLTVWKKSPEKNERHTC
# T1 sequence (P45983 whole entry): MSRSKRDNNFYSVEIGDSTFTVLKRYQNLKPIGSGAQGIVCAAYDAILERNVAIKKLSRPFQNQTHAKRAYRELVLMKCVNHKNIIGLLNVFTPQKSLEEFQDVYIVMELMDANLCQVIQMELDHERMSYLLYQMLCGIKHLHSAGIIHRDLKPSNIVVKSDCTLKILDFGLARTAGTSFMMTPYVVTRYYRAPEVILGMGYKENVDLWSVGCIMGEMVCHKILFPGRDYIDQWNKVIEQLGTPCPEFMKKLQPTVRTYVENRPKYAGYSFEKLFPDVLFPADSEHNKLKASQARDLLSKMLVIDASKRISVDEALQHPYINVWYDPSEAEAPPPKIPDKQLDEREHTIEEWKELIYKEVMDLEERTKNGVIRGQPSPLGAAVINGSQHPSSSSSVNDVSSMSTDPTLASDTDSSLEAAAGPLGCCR
# T3 sequence (Q9UM73 19-1620): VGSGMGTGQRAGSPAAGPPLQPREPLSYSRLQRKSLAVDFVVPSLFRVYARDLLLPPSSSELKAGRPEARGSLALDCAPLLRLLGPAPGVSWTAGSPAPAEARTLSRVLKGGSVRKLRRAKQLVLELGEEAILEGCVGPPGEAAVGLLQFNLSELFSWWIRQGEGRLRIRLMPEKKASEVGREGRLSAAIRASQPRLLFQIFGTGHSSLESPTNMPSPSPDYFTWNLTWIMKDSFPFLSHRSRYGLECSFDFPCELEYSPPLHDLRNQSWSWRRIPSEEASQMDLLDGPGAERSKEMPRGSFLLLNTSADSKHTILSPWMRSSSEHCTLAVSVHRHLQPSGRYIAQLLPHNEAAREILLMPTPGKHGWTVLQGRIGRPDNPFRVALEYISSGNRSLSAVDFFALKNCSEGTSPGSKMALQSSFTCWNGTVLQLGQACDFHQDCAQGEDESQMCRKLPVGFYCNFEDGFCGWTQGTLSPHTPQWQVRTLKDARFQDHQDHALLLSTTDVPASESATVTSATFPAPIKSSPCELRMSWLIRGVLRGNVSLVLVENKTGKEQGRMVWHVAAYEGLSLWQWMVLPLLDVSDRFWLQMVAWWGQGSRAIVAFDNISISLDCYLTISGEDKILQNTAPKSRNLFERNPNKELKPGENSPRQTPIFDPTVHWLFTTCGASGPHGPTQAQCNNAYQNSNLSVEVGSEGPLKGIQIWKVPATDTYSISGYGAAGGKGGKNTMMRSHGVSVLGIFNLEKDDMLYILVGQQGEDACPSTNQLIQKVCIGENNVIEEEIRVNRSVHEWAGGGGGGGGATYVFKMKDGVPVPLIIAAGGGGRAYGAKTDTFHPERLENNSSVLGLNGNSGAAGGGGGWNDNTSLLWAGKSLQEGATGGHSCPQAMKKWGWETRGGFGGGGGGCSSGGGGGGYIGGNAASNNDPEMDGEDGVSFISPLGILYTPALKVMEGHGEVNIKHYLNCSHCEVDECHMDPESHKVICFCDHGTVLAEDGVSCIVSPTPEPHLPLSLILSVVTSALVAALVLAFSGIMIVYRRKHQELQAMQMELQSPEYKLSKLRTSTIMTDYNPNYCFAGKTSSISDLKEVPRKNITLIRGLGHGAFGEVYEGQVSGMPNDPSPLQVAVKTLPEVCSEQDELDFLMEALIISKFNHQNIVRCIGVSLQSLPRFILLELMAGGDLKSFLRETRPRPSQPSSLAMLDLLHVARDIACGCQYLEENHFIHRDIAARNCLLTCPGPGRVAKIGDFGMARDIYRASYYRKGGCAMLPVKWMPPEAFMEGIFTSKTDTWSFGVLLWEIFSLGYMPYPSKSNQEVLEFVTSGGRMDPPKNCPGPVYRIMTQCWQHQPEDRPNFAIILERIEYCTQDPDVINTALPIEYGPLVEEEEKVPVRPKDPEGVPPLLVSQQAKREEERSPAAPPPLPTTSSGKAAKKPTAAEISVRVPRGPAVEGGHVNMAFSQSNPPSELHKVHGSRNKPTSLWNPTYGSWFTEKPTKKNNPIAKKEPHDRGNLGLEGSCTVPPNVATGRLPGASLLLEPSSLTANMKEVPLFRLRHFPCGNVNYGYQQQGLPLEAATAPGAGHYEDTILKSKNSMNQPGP
compound,measurement,setting,value
CNC(=O)c1ccc2c(c1)C(=O)c1ccc(Nc3ccc(F)c(NC(=O)C4CC4)c3)cc1CC2 [Compound 2015],remaining activity at 0.2 µM,"340 wild-type kinases [1]; 0.2 µM 2015, read-out: JNK1 residual activity",107%
same,remaining activity at 1 µM,"340 wild-type kinases [1]; 1 µM 2015, read-out: JNK1 residual activity",94.2%
same,remaining activity at 0.2 µM,"340 wild-type kinases [1]; JNK1, 0.2 µM, read-out: residual activity",107%
same,remaining activity at 1 µM,"340 wild-type kinases [1]; JNK1, 1 µM, read-out: residual activity",94.2%
same,remaining activity at 0.2 µM,"340 wild-type kinases [2]; 0.2 µM 2015, read-out: LYN residual activity",109%
same,remaining activity at 1 µM,"340 wild-type kinases [2]; 1 µM 2015, read-out: LYN residual activity",82.5%
same,remaining activity at 0.2 µM,"340 wild-type kinases [2]; LYN, 0.2 µM, read-out: residual activity",109%
same,remaining activity at 1 µM,"340 wild-type kinases [2]; LYN, 1 µM, read-out: residual activity",82.5%
same,remaining activity at 0.2 µM,"340 wild-type kinases [3]; 0.2 µM 2015, read-out: ALK residual activity",95.3%
same,remaining activity at 1 µM,"340 wild-type kinases [3]; 1 µM 2015, read-out: ALK residual activity",86.8%
same,remaining activity at 0.2 µM,"340 wild-type kinases [3]; ALK, 0.2 µM, read-out: residual activity",95.3%
same,remaining activity at 1 µM,"340 wild-type kinases [3]; ALK, 1 µM, read-out: residual activity",86.8%
same,remaining activity at 0.2 µM,"340 wild-type kinases [4]; 0.2 µM 2015, read-out: ACK1 residual activity",110%
same,remaining activity at 1 µM,"340 wild-type kinases [4]; 1 µM 2015, read-out: ACK1 residual activity",108%
same,remaining activity at 0.2 µM,"340 wild-type kinases [4]; ACK1, 0.2 µM, read-out: residual activity",110%
same,remaining activity at 1 µM,"340 wild-type kinases [4]; ACK1, 1 µM, read-out: residual activity",108%
same,remaining activity at 0.2 µM,"340 wild-type kinases [5]; 0.2 µM 2015, read-out: NDR1 residual activity",91.9%
same,remaining activity at 1 µM,"340 wild-type kinases [5]; 1 µM 2015, read-out: NDR1 residual activity",94%
same,remaining activity at 0.2 µM,"340 wild-type kinases [5]; NDR1, 0.2 µM, read-out: residual activity",91.9%
same,remaining activity at 1 µM,"340 wild-type kinases [5]; NDR1, 1 µM, read-out: residual activity",94%
same,remaining activity at 0.2 µM,"340 wild-type kinases [6]; 0.2 µM 2015, read-out: PKCtheta residual activity",108%
same,remaining activity at 1 µM,"340 wild-type kinases [6]; 1 µM 2015, read-out: PKCtheta residual activity",89.1%
same,remaining activity at 0.2 µM,"340 wild-type kinases [6]; PKCtheta, 0.2 µM, read-out: residual activity",108%
same,remaining activity at 1 µM,"340 wild-type kinases [6]; PKCtheta, 1 µM, read-out: residual activity",89%
same,remaining activity at 0.2 µM,"340 wild-type kinases [7]; 0.2 µM 2015, read-out: TBK1 residual activity",120%
same,remaining activity at 1 µM,"340 wild-type kinases [7]; 1 µM 2015, read-out: TBK1 residual activity",101%
same,remaining activity at 0.2 µM,"340 wild-type kinases [7]; TBK1, 0.2 µM, read-out: residual activity",120%
same,remaining activity at 1 µM,"340 wild-type kinases [7]; TBK1, 1 µM, read-out: residual activity",101%
same,remaining activity at 0.2 µM,"340 wild-type kinases [8]; 0.2 µM 2015, read-out: EIF2AK2 residual activity",84.5%
same,remaining activity at 1 µM,"340 wild-type kinases [8]; 1 µM 2015, read-out: EIF2AK2 residual activity",85.2%
same,remaining activity at 0.2 µM,"340 wild-type kinases [8]; EIF2AK2, 0.2 µM, read-out: residual activity",84.5%
same,remaining activity at 1 µM,"340 wild-type kinases [8]; EIF2AK2, 1 µM, read-out: residual activity",85.2%
same,remaining activity at 0.2 µM,"340 wild-type kinases [9]; 0.2 µM 2015, read-out: EPHA5 residual activity",110%
same,remaining activity at 1 µM,"340 wild-type kinases [9]; 1 µM 2015, read-out: EPHA5 residual activity",98.5%
same,remaining activity at 0.2 µM,"340 wild-type kinases [9]; EPHA5, 0.2 µM, read-out: residual activity",110%
same,remaining activity at 1 µM,"340 wild-type kinases [9]; EPHA5, 1 µM, read-out: residual activity",98.5%
same,remaining activity at 0.2 µM,"340 wild-type kinases [10]; 0.2 µM 2015, read-out: FGFR4 residual activity",107%
same,remaining activity at 1 µM,"340 wild-type kinases [10]; 1 µM 2015, read-out: FGFR4 residual activity",95.9%
same,remaining activity at 0.2 µM,"340 wild-type kinases [10]; FGFR4, 0.2 µM, read-out: residual activity",107%
same,remaining activity at 1 µM,"340 wild-type kinases [10]; FGFR4, 1 µM, read-out: residual activity",95.9%
same,remaining activity at 0.2 µM,"340 wild-type kinases [11]; 0.2 µM 2015, read-out: HIPK1 residual activity",98.9%
same,remaining activity at 1 µM,"340 wild-type kinases [11]; 1 µM 2015, read-out: HIPK1 residual activity",102%
same,remaining activity at 0.2 µM,"340 wild-type kinases [11]; HIPK1, 0.2 µM, read-out: residual activity",98.9%
same,remaining activity at 1 µM,"340 wild-type kinases [11]; HIPK1, 1 µM, read-out: residual activity",102%
same,remaining activity at 0.2 µM,"340 wild-type kinases [12]; 0.2 µM 2015, read-out: VEGFR3 residual activity",109%
same,remaining activity at 1 µM,"340 wild-type kinases [12]; 1 µM 2015, read-out: VEGFR3 residual activity",94.2%
same,remaining activity at 0.2 µM,"340 wild-type kinases [12]; VEGFR3, 0.2 µM, read-out: residual activity",109%
same,remaining activity at 1 µM,"340 wild-type kinases [12]; VEGFR3, 1 µM, read-out: residual activity",94.2%
same,remaining activity at 0.2 µM,"340 wild-type kinases [13]; 0.2 µM 2015, read-out: CAMK2A residual activity",102%
same,remaining activity at 1 µM,"340 wild-type kinases [13]; 1 µM 2015, read-out: CAMK2A residual activity",96.4%
same,remaining activity at 1 µM,"340 wild-type kinases [13]; CAMK2A, 1 µM, read-out: residual activity",96.4%
